The values that follow come from paper PMC10043345, “Discovery of BAR502, as potent steroidal antagonist of leukemia inhibitory factor receptor for the treatment of pancreatic adenocarcinoma” (Frontiers in Oncology, 2023).

For test [1], the target named is T1, FXR (Homo sapiens, UniProt Q96RI1).
T1 construct: expressed in transfected cells; host or cells: HepG2
T1 sequence (Q96RI1 1-486): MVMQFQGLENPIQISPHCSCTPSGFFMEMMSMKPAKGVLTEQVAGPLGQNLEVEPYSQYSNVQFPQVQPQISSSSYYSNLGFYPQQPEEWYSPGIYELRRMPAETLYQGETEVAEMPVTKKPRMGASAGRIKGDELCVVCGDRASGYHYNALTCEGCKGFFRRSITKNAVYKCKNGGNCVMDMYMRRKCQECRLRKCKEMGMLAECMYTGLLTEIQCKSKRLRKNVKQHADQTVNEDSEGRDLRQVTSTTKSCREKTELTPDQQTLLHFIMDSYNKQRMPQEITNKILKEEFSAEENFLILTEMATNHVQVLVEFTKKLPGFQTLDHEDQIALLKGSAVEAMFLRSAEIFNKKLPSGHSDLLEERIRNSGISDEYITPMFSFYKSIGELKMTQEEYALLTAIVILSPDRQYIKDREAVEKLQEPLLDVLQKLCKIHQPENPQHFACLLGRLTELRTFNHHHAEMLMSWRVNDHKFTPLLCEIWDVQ
T1 sequence (P19793 1-462 partner): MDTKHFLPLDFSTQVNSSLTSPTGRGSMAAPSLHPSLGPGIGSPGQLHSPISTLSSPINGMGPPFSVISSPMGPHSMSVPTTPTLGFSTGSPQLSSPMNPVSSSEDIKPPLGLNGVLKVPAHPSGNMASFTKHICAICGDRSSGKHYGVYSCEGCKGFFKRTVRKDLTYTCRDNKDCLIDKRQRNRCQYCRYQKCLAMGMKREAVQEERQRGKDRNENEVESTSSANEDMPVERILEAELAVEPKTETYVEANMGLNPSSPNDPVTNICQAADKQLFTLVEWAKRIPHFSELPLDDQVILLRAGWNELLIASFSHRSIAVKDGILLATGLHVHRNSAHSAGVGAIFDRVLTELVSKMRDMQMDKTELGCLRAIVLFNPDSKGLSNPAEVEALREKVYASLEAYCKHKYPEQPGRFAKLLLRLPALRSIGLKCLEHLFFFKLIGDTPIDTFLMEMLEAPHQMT
Kind of test: FXR transactivation (FXR/RXR, hsp27 IR1-luciferase) in HepG2 cells. The test is classed as cell-based. The procedure:
On day 0, HepG2 were seeded at 7.5 × 10^4 cells/well in a 24-well plate and maintained at 37°C and 5% CO2 in E-MEM supplemented with 10% FBS, 1% glutamine, and 1% penicillin/streptomycin. On day 1, cells were transiently transfected with the reporter plasmid pGL4.47[luc2P/SIE/Hygro] (200 ng) (CAT#: E4041 Promega, Madison, WI, USA), a vector encoding the hLIFR (CAT# RC226327) (100 ng) and CD130 (IL6ST) (100 ng) (CAT#: RC215123, OriGene Technologies, Inc. Rockville, MD, USA), and finally a vector encoding the human RENILLA luciferase gene (pGL4.70) (100 ng) (Promega, Madison, WI, USA). On day 2, cells were exposed to the cytokine LIF (10 ng/mL) alone or in combination with BAR502 (from 0.1 to 20 μM). […] For FXR mediated transactivation, HepG2 cells were plated at 7.5 × 10^4 cells/well in a 24 well plate. Cells were transfected with 200 ng of the reporter vector p(hsp27)-TK-LUC containing a FXR response element (IR1) cloned from the promoter of heat shock protein 27 (hsp27), 100 ng of pSG5-FXR, 100 ng of pSG5-RXR, and 100 ng of pGL4.70 (Promega), a vector encoding the human Renilla gene. To perform STAT3 transactivation, HepG2 were seeded at 7.5× 10^4 cells/well in a 24-well plate. On the day-1, cells were transiently transfected with 200 ng of the reporter plasmid pGL4.47[luc2P/SIE/Hygro] […] Luminescence was measured using a Glomax 20/20 luminometer (Promega, Madison, WI, USA). […]

Test [2] relates to MIA PaCa-2 cells. Kind of test: MTS cell proliferation assay. The format is cell-based, human. The procedure: The cell viability assay was done using the CellTiter 96 Aqueous One Solution Cell Proliferation Assay (Promega, Milano, Italy), a colorimetric method for accessing the number of viable cells in proliferation as described previously ([13]). MIA-PaCa 2 cells were seeded in DMEM complete medium at 36 *10^3 cells/100 uL well into 96-well tissue culture plate. After 24 h, cells were serum starved for 24 h and then were primed with the LIFR major ligand, LIF (10 ng/ml) alone or in combination with BAR502 (5,10 and 20 μM) or only with vehicle. In another experimental setting, MIA-PaCa 2 cells were triggered with PDL103 (10 μM) alone, LIF (10 ng/ml) alone or plus PDL103 or BAR502 (10 μM) or both. In a different setting cell were exposed to an antagonist of the Farnesoid X receptor (FXR), 3-(naphthalen-2-yl)-5-(piperidin-4-yl)-1,2,4-oxadiazole (GP7) (10 µM) ([54]), LIF (10 ng/ml) alone or in combination with GP7 or BAR502 or both. Then cell proliferation assessed as mentioned above. Absorbance was measured using a 96 well reader spectrophotometer (490 nm). In these experiments each experimental setting was replicated ten folds. For analysis the background readings with the medium alone, were subtracted from the samples read-outs.
For orientation: Tetrazolium dyes change colour on reduction, which living cells bring about.

In the case of `OCc1ccc(-c2ccc(OCc3cc(-c4c(Cl)cccc4Cl)no3)cc2)cc1` [PDL103, (4’-((3-(2,6-dichlorophenyl)isoxazol-5-yl)methoxy)-[1,1’-biphenyl]-4-yl)methanol], the IC50 in test [1] (read-out: HepG2 FXR/RXR Antagonism IC50) came to 10 µM. In addition, the “effect of PDL103 co-treatment on BAR502 action on LIF/LIFR induced proliferation and EMT” value in test [2] (PDL103 10 μM + BAR502 10 μM + LIF 10 ng/ml) was “failed to reverse the effect of BAR502”.
As a reminder, the EC50 is the concentration giving half of the maximal effect. `CC[C@H]1[C@@H](O)C2C3CC[C@H]([C@H](C)CCO)[C@@]3(C)CCC2[C@@]2(C)CC[C@@H](O)C[C@@H]12` (stereo partly shown) [BAR502]: the EC50 in test [1] (transactivation, agonism, read-out: FXR EC50 Transact) was found to be 3 ± 1 µM. Further, in test [2] (LIF 10 ng/mL + BAR502 5, 10, 20 µM, 24 h, serum free), the “effect on LIF-induced proliferation (MTS)” value was “reversed the LIF-proliferative effect in a concentration-dependent manner”.
